In patent EP0098577A2, “Drugs for treating diarrhea caused by infection” (HOECHST AKTIENGESELLSCHAFT, priority 1982, dated 1984):
Read-outs that look alike come from different tables or passages of the source.

How the values were obtained:
Experiment in all cases: in vitro checkerboard method (Schachbrettmethode): MHK and FIC-Index
Type in all cases: cell-based
Salmonella paratyphi A = details: Salmonella enterica, read-out: MHK
From the text: (§1) Zur Untersuchung der erfindungsgemäßen Kombination wurden mit typischen Vertretern der grampositiven und gramnegativen Keimgruppen in vitro Versuche durchgeführt. Mit der für Kombinationsversuche üblichen Methode, der sogenannten "Schachbrettmethode" (vgl. "Antibiotics in Laboratory Medicine", Editor Lorian, Baltimore London 1980, Seiten 300-309), wurden sowohl die minimalen Hemmkonzentrationen (MHK) als auch die Hemmgrenzen in den einzelnen Kombinationen bestimmt. Das Endergebnis wurde als FIC-Index (Fractional Inhibitory Concentration Index) ausgedrückt. Der FIC-Index berechnet sich nach folgender Formel: [formula]
(§2) Hierbei ist A bzw. B die niedrigste Konzentration der Verbindungen A bzw. B, die in Kombination mit der Verbindung B bzw. A eine Hemmwirkung zeigt. Dieser Wert wird durch die MHK der Verbindung A bzw. B dividiert. Der so erhaltene FIC-Index gibt Aufschluß über die Interaktionen von zwei Verbindungen in ihrer antibakteriellen Wirkung. FIC-Index-Zahlen, die kleiner als 1 sind, drücken eine synergistische Wirkung aus. Die mit dieser Methode ermittelten Resultate sind in den nachstehenden Tabellen zusammengestellt.
(§3) In den nachstehenden Tabellen sind in den ersten beiden Spalten die minimalen Hemmkonzentrationen der geprüften Verbindungen in Mikrogramm pro Milliliter aufgeführt. In einigen Fällen sind abweichende Konzentrationseinheiten angegeben, z.B. Nanogramm [ng] oder Milligramm [mg] pro Milliliter. Wenn ein FIC-Index nicht angegeben wurde, so bedeutet dies, daß aufgrund der Unwirksamkeit des einen Wirkstoffes keine Grenze zu ermitteln war.

Salmonella oranienburg = details: Salmonella enterica, single substance
From the text: as §1, §2, §3

Salmonella typhimurium = details: for MIC: Salmonella enterica, TYPHIMURIUM, read-out: MHK
From the text: as §1, §2, §3

[1] = system: Serratia marcescens A 20019; details: single substance; for MIC: Serratia marcescens, A20019, in vitro
From the text: as §1, §2, §3

Strept. pyogenes A 77 = details: Streptococcus pyogenes, A77, single substance
From the text: as §1, §2, §3

Hafnia alvei ATCC 11604 = system: Hafnia alvei ATCC 11604
From the text: as §1, §2, §3

E. coli TEM = details: Escherichia coli, read-out: MHK
From the text: as §1, §2, §3

Strept. faecium D = details: Enterococcus faecium, single substance
From the text: as §1, §2, §3

E. coli 0 86 = details: Escherichia coli, 086, single substance, ng per millilitre (b7)
From the text: as §1, §2, §3

[2] = system: Micrococcus luteus ATCC 9341
From the text: as §1, §2, §3

Proteus rettgeri 936 = details: single substance; for MIC: Providencia rettgeri, 936, in vitro
From the text: as §1, §2, §3

E. coli 0 55 = details: single substance; for MIC: Escherichia coli, 055, in vitro
From the text: as §1, §2, §3

[3] = system: Klebsiella pneumoniae A 9977
From the text: as §1, §2, §3

Pseud. aeruginosa 1771 m = details: single substance; for MIC: Pseudomonas aeruginosa, 1771M
From the text: as §1, §2, §3

Staph. aureus SG 511 = details: Staphylococcus aureus, SG511, single substance
From the text: as §1, §2, §3

[4] = system: Serratia marcescens A 20460; details: for MIC: Serratia marcescens
From the text: as §1, §2, §3

[5] = system: Pseud. aeruginosa NCTC 10701; details: Pseudomonas aeruginosa, NCTC10701, in vitro, single substance
From the text: as §1, §2, §3

[6] = system: Pseud. aeruginosa ATCC 9027; details: Pseudomonas aeruginosa, ATCC9027, in vitro, single substance
From the text: as §1, §2, §3

[7] = system: Bacillus subtilis ATCC 6633
From the text: as §1, §2, §3

Enterobacter cloacae = details: read-out: MHK
From the text: as §1, §2, §3

[8] = ATCC9341, in vitro, single substance, Micrococcus luteus ATCC 9341, read-out: MHK
[9] = in vitro, single substance, Salmonella typhimurium

## CCn1cc(C(=O)O)c(=O)c2cc(F)c(N3CCNCC3)cc21 [Norfloxacin]
Salmonella paratyphi A
  MIC: 0.0195 µg/mL
Salmonella oranienburg; ng per millilitre (b7)
  MIC: 0.0781 µg/mL
Salmonella typhimurium
  MIC: 0.0195 µg/mL
[1]; ng per millilitre (b7)
  MIC: 0.0781 µg/mL
Strept. pyogenes A 77
  MIC: 2.5 µg/mL
Hafnia alvei ATCC 11604; Hafnia alvei, ATCC11604, read-out: MHK
  MIC: 0.0195 µg/mL
E. coli TEM
  MIC: 0.0391 µg/mL
Strept. faecium D
  MIC: 1.25 µg/mL
E. coli 0 86
  MIC: 0.0391 µg/mL
[2]; [8]
  MIC: 12.5 µg/mL
Proteus rettgeri 936; ng per millilitre (b7)
  MIC: 0.0781 µg/mL
E. coli 0 55; ng per millilitre (b7)
  MIC: 0.0391 µg/mL

## CCOc1ccc2nc3cc(N)ccc3c(N)c2c1 [EAL, Ethacridinlactat]
Salmonella paratyphi A
  MIC: 12.5 µg/mL
[3]; A9977, in vitro, single substance, Klebsiella pneumoniae A 9977, read-out: MHK
  MIC: 125 µg/mL
Salmonella oranienburg
  MIC: 62.5 µg/mL
Pseud. aeruginosa 1771 m
  MIC: 31.2 µg/mL
  MHK: 62,5 µg/ml
Staph. aureus SG 511
  MIC: 6.25 µg/mL
Salmonella typhimurium; [9]
  MIC: 25 µg/mL
  MHK: 50,0 µg/ml
[1]; mg per millilitre (b7)
  MIC: 1000 µg/mL
[1]; in vitro, mg per millilitre (b7)
  MHK: >1,0 mg
Hafnia alvei ATCC 11604; ATCC11604, in vitro, single substance, Hafnia alvei ATCC 11604, read-out: MHK
  MIC: 62.5 µg/mL
E. coli TEM
  MIC: 12.5 µg/mL
Strept. faecium D
  MIC: 12.5 µg/mL
[4]; A20460, in vitro, single substance, Serratia marcescens A 20460, mg per millilitre (b7), read-out: MHK
  MIC: > 1000 µg/mL
[4]; in vitro, single substance, Serratia marcescens A 20460, mg per millilitre (b7)
  MHK: 1,0 mg
[2]; [8]
  MIC: 6.25 µg/mL
[5]
  MIC: 12.5 µg/mL
Proteus rettgeri 936
  MIC: 31.2 µg/mL
Proteus rettgeri 936; in vitro
  MHK: 62,5 µg/ml
E. coli 0 55
  MIC: 6.25 µg/mL
E. coli 0 55; in vitro
  MHK: 12,5 µg/ml
[6]
  MIC: 12.5 µg/mL

## CCn1cc(C(=O)O)c(=O)c2cc3occc3nc21 [OFNC, 5-Äthyl-5,8-dihydro-8-oxofuran(3,2-b)(1,8)-naphthyridin-7-carbonsäure]
Salmonella paratyphi A
  MIC: 0.0391 µg/mL
[3]; A9977, in vitro, single substance, Klebsiella pneumoniae A 9977, ng per millilitre (b7), read-out: MHK
  MIC: 0.0781 µg/mL
Salmonella oranienburg; ng per millilitre (b7)
  MIC: 0.0781 µg/mL
Salmonella typhimurium; in vitro, single substance, Salmonella typhimurium, ng per millilitre (b7)
  MIC: 0.0781 µg/mL
Strept. pyogenes A 77
  MIC: 125 µg/mL
Hafnia alvei ATCC 11604; ATCC11604, in vitro, single substance, Hafnia alvei ATCC 11604, ng per millilitre (b7), read-out: MHK
  MIC: 0.0391 µg/mL
Strept. faecium D
  MIC: 31.2 µg/mL
[7]; ATCC6633, in vitro, single substance, Bacillus subtilis ATCC 6633, ng per millilitre (b7), read-out: MHK
  MIC: 0.0488 µg/mL
E. coli 0 86
  MIC: 0.0625 µg/mL
[2]; [8]
  MIC: 31.2 µg/mL
Proteus rettgeri 936; ng per millilitre (b7)
  MIC: 0.0312 µg/mL

## COn1cc(C(=O)O)c(=O)c2cc3c(cc21)OCO3 [Miloxacin]
Pseud. aeruginosa 1771 m
  MIC: 50 µg/mL
Staph. aureus SG 511
  MIC: 6.25 µg/mL
Strept. pyogenes A 77; mg per millilitre (b7)
  MIC: > 1000 µg/mL
Enterobacter cloacae; in vitro, single substance
  MIC: 2.5 µg/mL
Strept. faecium D; mg per millilitre (b7)
  MIC: > 1000 µg/mL
[2]; ATCC9341, in vitro, single substance, Micrococcus luteus ATCC 9341, mg per millilitre (b7), read-out: MHK
  MIC: > 1000 µg/mL
[5]
  MIC: 31.2 µg/mL
[6]
  MIC: 25 µg/mL

## CCn1cc(C(=O)O)c(=O)c2ccc(C)nc21 [Nalidixinsäure]
[3]; Klebsiella pneumoniae, A9977, read-out: MHK
  MIC: 6.25 µg/mL
Pseud. aeruginosa 1771 m
  MIC: 100 µg/mL
Staph. aureus SG 511
  MIC: 50 µg/mL
Strept. pyogenes A 77; mg per millilitre (b7)
  MIC: > 1000 µg/mL
Enterobacter cloacae
  MIC: 6.25 µg/mL
Strept. faecium D
  MIC: 500 µg/mL
[7]; Bacillus subtilis, ATCC6633, read-out: MHK
  MIC: 6.25 µg/mL
[4]; A20460, read-out: MHK
  MIC: 6.25 µg/mL
[2]; Micrococcus luteus, ATCC9341, read-out: MHK
  MIC: > 1000 µg/mL
[5]
  MIC: 250 µg/mL
[6]
  MIC: 500 µg/mL
